This is an account of results in patent publication US20230293420A1, “COSMETIC OR DERMOPHARMACEUTICAL COMPOSITION, PEPTIDE AND USE IN THE REDUCTION AND ELIMINATION OF WRINKLES AND EXPRESSION LINES” (NANOCEUTICALS LTDA, priority 2022, published 2023).

Where a SMILES comes first, the peptide text is derived from it.

Data set [1] deals with Balb/c 3T3 clone 31 cells. Briefly: In vitro study of neutral red cytotoxicity. The note with it: 24 hours incubation. The class given is cell-based. Here is the method:
Evaluate the in vitro cytotoxic potential of the Giovian peptide (SEQ ID No. 1) in culture of Balb/c 3T3 clone 31 cells.
In this study, Balb.c 3T3 clone 31 cells were used, obtained from the supplier Banco de Células do Rio de Janeiro, batch 001242, maintained in cultivation with DMEM (Dulbecco's Modified Eagle's Medium) with the addition of supplements, in an oven at 37° C. and 5% of CO2, and were manipulated inside the laminar flow hood. In passage 04 after thawing, the cells were distributed in 96-well plates maintained in culture under the same conditions described.
The solutions containing the control, positive control and sample groups were applied to the cell culture, 100 μL per well in quadruplicate for each group, followed by incubation in an oven at 37° C. and 5% CO2 for 24 hours. After washing, cell viability was analyzed with the neutral red indicator, 100 μL per well.
The results were evaluated using Microsoft Excel software. The control group was normalized to 100% and the percentage of cell viability in the sample and in the positive control was calculated in relation to the control. Samples are considered cytotoxic when they have 30% or more reduction in cell viability.

In a further data set the test system is myoblast cells. Type of data set: cell-based.
Data set [2] is described as follows: Appearance of solubilized sample in cell culture medium. The class given is physicochemical. The note with it: 1 mg/mL in cell culture medium.

Regarding `CC[C@H](C)[C@H](NC(=O)[C@H](CC(C)C)NC(=O)[C@H](CCCCN)NC(=O)CNC(=O)[C@H](CC(C)C)NC(=O)[C@H](CCCCN)NC(=O)[C@H](CC(C)C)NC(=O)[C@H](Cc1c[nH]c2ccccc12)NC(=O)[C@H](Cc1ccccc1)NC(=O)[C@@H](NC(=O)[C@H](CCCCN)NC(=O)[C@H](CCCNC(=N)N)NC(=O)[C@H](Cc1ccccc1)NC(=O)[C@@H]1CCCN1C(=O)[C@@H](NC(=O)[C@H](Cc1ccccc1)NC(=O)CNC(=O)[C@@H]1CCCN1C(=O)[C@@H]1CCCN1C(=O)[C@@H](N)CCCNC(=N)N)[C@@H](C)O)[C@@H](C)CC)C(=O)N[C@@H](CC(=O)O)C(=O)N[C@@H](C)C(=O)N[C@@H](CC(C)C)C(N)=O` [Giovian] (H-RPPGFTPFRKIFWLKLGKLIDAL-NH2), the “concentrations at which the sample did not present cytotoxic effect (cytotoxic = 30% or more reduction in cell viability)” value in data set [1] is on record as “lower than 0.0375 mg/ml”. Moreover, the “cell relaxation (reduction of cell contractility, collagen disc volume)” value with myoblast cells is given as “increase in cell relaxation”. Further, in data set [2], the “appearance of solubilized sample” value was “fully solubilized”.
